Holding throughout (assay type): cell-based
The subject of experiment [1] is Botrytis cinerea. Put plainly: Action against Botrytis cinerea, growth inhibition in nutrient broth (microtiter plate, photometric). Particulars: 24° C., 48-72 hrs.
The subject of experiment [2] is Pyricularia oryzae. The note with it: 24° C., 72 hrs.
Experiment [3] has as its system Alternaria solani. Put plainly: Action against Alternaria solani (early blight), growth inhibition in nutrient broth (microtiter plate, photometric). The note with it: 24° C., 48 hrs.
Experiment [4] has as its system Pyrenophora teres. As to the kind of experiment: Action against Pyrenophora teres (net blotch), growth inhibition in nutrient broth (microtiter plate, photometric). Particulars: 24° C., 48 hrs.
For experiment [5], the system named is Pythium ultimum. Put plainly: Action against Pythium ultimum (damping off), growth inhibition in nutrient broth (microtiter plate, photometric). The note with it: each active ingredient at 0.67 ppm [mg/L] final medium; 24° C., 48 hrs.
[6] abbreviates: each active ingredient at 0.02 ppm [mg/L] final medium.

Several values for one entry are separate records, joined by “and”; a condition that tells them apart may be missing. Equal values may be shown once. Read-outs that look alike come from different tables or passages of the source.

With `CC(C)C1C2CCC1c1c(NC(=O)c3cn(C)nc3C(F)F)cccc12` (racemic) [Cpd I, 3-difluoromethyl-1-methyl-1H-pyrazole-4-carboxylic acid (9-isopropyl-1,2,3,4-tetrahydro-1,4-methano-naphthalen-5-yl)-amide], the “Observed control in % (% Cobs) observed” value came to 17% in experiment [1] (setting [6]); 61% in experiment [1] (each active ingredient at 0.07 ppm [mg/L] final medium); 74% in experiment [1] (each active ingredient at 0.22 ppm [mg/L] final medium); 79% in experiment [1] (each active ingredient at 0.67 ppm [mg/L] final medium); 11% in experiment [2] (each active ingredient at 0.01 ppm [mg/L] final medium); 35% in experiment [2] (setting [6]). In addition, the “Observed control in % (% Cobs) observed” value in experiment [3] (each active ingredient at 0.004 ppm [mg/L] final medium) was 1% and 2%; in experiment [3] (each active ingredient at 0.008 ppm [mg/L] final medium) it was 5% and 2%; in experiment [3] (each active ingredient at 0.016 ppm [mg/L] final medium), 9% and 12% and 3%; in experiment [3] (setting [6]), 46%; in experiment [4] (each active ingredient at 0.5 ppm [mg/L] final medium), 70%; in experiment [4] (each active ingredient at 1 ppm [mg/L] final medium), 79%. Besides, the “Observed control in % (% Cobs) observed” value in experiment [5] was determined as 0%.

For the origin of these results see patent publication US20100216825A1, “FUNGICIDAL COMPOSITIONS” (SYNGENTA CROP PROTECTION, INC., priority 2006, published 2010).
